In paper PMC8315109 (Science signaling, 2021):

Assays:
[1] = molecular target: T1, Jupiter microtubule-associated homolog 2 (JPT2) (Homo sapiens, UniProt Q9H910); assay: […]-NAADP radioligand filtration binding, displacement by unlabeled NAADP
T1 sequence (Q9H910 1-218 isoform Q9H910-3): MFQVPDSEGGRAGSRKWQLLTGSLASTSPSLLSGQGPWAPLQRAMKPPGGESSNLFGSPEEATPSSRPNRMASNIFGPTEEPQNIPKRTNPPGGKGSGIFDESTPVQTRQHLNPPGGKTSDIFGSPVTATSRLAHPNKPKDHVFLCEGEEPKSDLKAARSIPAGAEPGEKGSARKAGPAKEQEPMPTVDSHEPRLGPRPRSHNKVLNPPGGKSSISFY

[2] = molecular target: T1, Jupiter microtubule-associated homolog 2 (JPT2); assay: […]-NAADP radioligand filtration binding, displacement by HPLC-purified NADP

Nc1ncnc2c1ncn2[C@@H]1O[C@H](COP(=O)(O)OP(=O)(O)OC[C@H]2O[C@@H]([n+]3cccc(C(=O)O)c3)[C@H](O)[C@@H]2O)[C@@H](O)[C@H]1OP(=O)(O)O [NAADP]
IC50 [1]: 20 ± 3.6 nM

NC(=O)c1ccc[n+]([C@@H]2O[C@H](COP(=O)(O)OP(=O)(O)OC[C@H]3O[C@@H](n4cnc5c(N)ncnc54)[C@H](OP(=O)(O)O)[C@@H]3O)[C@@H](O)[C@H]2O)c1 [NADP]
IC50 [2]: 334 ± 76 nM
